Data on 13 substances can be found in patent US12605753B2, “Enhanced microbial production of biosurfactants and other products, and uses thereof” (LOCUS SOLUTIONS IPCO, LLC, priority 2015, dated 2026).

For the series, the system named is Bacillus subtilis B1, B2, and B3 strains. Nature of the series: PCR with primers for unique signature sequences. To be noted: amplicon generated by the forward/reverse primer pair (LSBS n-F / n-R) specific for Bacillus subtilis B1, B2, B3 strains. The source says:
Table 7 below depicts thirteen (13) pairs of primers specifically designed for the Bacillus subtilis B1, B2, and B3 strains. All 13 primers generate unique PCR amplicons for identifying the Bacillus subtilis strains of the present invention. The subsequent PCR products are unique and are not found performing a search (i.e., BLAST search) in a database such as the GenBank database.
“LSBS 4-F (DNA CATGCGGAACTCCAATTTCTTC; listed as DNA, chemistry not given here)”: the “PCR Product Size (bp)” value worked out at 263 bp. As for “LSBS 12-F (DNA TGTCCCTCTTTAGGTGCTATTG; listed as DNA, chemistry not given here)”, the figure is 954 bp; as for “LSBS 8-F (DNA GCTGTAGACGACTGGGTACTA; listed as DNA, chemistry not given here)”, 750 bp; as for “LSBS 5-F (DNA CCATTAGGGTCAACATGGTCTAA; listed as DNA, chemistry not given here)”, 273 bp.

For the substance “LSBS 6-F (DNA CACCGAACTCTGCTGAGAAA; listed as DNA, chemistry not given here)”, the “PCR Product Size (bp)” value worked out at 523 bp. With “LSBS 7-F (DNA CCTCTGCCCAAGACATATCAA; listed as DNA, chemistry not given here)”, the “PCR Product Size (bp)” value was 913 bp. To “LSBS 9-F (DNA GCCATCAGGCTGTTTGTAGA; listed as DNA, chemistry not given here)” belongs 679 bp; to “LSBS 13-F (DNA CCCTCTAGCTCTTTCTTCTTCAC; listed as DNA, chemistry not given here)”, 496 bp. As for “LSBS 10-F (DNA CAGATGAAGTTGGTGGTGTTTC; listed as DNA, chemistry not given here)”, the figure is 743 bp; as for “LSBS 11-F (DNA ATGCGGCTAGACATGGATATG; listed as DNA, chemistry not given here)”, 687 bp; as for “LSBS 3-F (DNA CGGAGTTTGTTAGCGAAGTTATTG; listed as DNA, chemistry not given here)”, 543 bp. In the case of “LSBS 1-F (DNA GGACACAGATCATTGGGAGTT; listed as DNA, chemistry not given here)”, the “PCR Product Size (bp)” value is 769 bp. For the substance “LSBS 2-F (DNA TCAATTCCTCTGCACCACTTAT; listed as DNA, chemistry not given here)”, the “PCR Product Size (bp)” value is given as 906 bp.
